This note sets out measurements from ChEMBL document CHEMBL1141927, “Quorum sensing in Vibrio harveyi: probing the specificity of the LuxP binding site” (Bioorg Med Chem Lett, 2005).

Each structure is given as a SMILES string.

By EC50 is commonly meant the concentration giving half of the maximal effect. Lower therefore signals greater potency.

The experiment can be described thus: Effective concentration to induce a quorum signal in Vibrio harveyi(by binding Lux P protein). It is filed as functional.
In turn, `CC(=O)C(=O)CCO` displayed an EC50 of 27 µM. In turn, `O=C(CO)[C@H](O)[C@H](O)CO` returned an EC50 of 108 µM. For the molecule `CC(=O)C(=O)[C@H](O)[C@H](O)CO`, the concentration giving a half-maximal response (EC50) is 429 µM. The molecule `CC(=O)C(=O)[C@H](O)CO` registered a concentration giving a half-maximal response (EC50) of 84 µM.

In the case of `O=C1O[C@H]([C@@H](O)CO)C(O)=C1O` [ASCORBIC ACID], the concentration giving a half-maximal response (EC50) is 737 µM. For the molecule `O=C(CO)[C@@H](O)[C@H](O)CO`, it took 560 µM to reach a half-maximal effect (EC50). The value for `CC(=O)C(=O)[C@@H](O)CO` was 0.044 µM.
